Series [1] is described as follows: refractive index (Na D-line) (dimensionless). The settings on record: 293.15 K; 101.33 kPa; Liquid; Standard Abbe refractometry.
For series [2] the following is noted: Liquid; for mass density: 298.15 K, 101.33 kPa; for Normal boiling temperature: Ebulliometric method (Recirculating still).

Data on three molecules can be found in the NIST ThermoML archive (doi:10.1021/je900669t).

± gives the expanded uncertainty stated by the source.

With `CC(=O)CC(C)=O` [2,4-pentanedione], the refractive index (usually a measure of how strongly the sample bends light) in series [1] is 1.4489 ± 0.0005. In series [2], the mass density (usually mass per unit of volume) was 971.7 ± 1.4 kg/m3 and the Normal boiling temperature was determined as 140.5 ± 0.2 °C.
For `CC(=O)O` [acetic acid], the refractive index in series [1] came to 1.3715 ± 0.0005. Further, in series [2], the mass density is listed as 1046.9 ± 1.6 kg/m3 and the Normal boiling temperature turned out to be 118.29 ± 0.2 °C.
In the case of `C1CCCCC1` [cyclohexane], the refractive index in series [1] amounted to 1.4259 ± 0.0005. For the same molecule, in series [2], the mass density is reported as 779.6 ± 7.6 kg/m3 and the Normal boiling temperature came to 80.8 ± 0.2 °C.
